Columns and labels:
sweetpotato whitefly [1] = assay: Test Example 7: yellow Kent paper (Production Example 6) in net cage, hatching inhibition; type: in vivo, Bemisia tabaci; conditions: yellow Kent paper 15 cm x 15 cm, 5 g/m², cotton seed oil, tetradecane, Span 85; eggs laid on kidney bean
Description: Five parts of the insect growth regulator is dissolved in 65 parts of a vegetable oil, and then 20 parts of a mineral oil and 10 parts of a surface active agent are added thereto and mixed. 2.25 Grams of the resulting solution is absorbed in a square yellow Kent paper having a side of 15 cm to obtain a material for controlling pests containing 5 g/m² of the active ingredient. The material for controlling pests containing pyriproxyfen (insect growth regulator), a cotton seed oil (vegetable oil), tetradecane (mineral oil) and Span 85® (surface active agent produced by ICI Americas Inc.) prepared according to Production Example 6 was formed into a size of 15 cm x 15 cm. It was set on one wall surface of a nylon net cage of 30 cm x 30 cm x 30 cm in size. About 100 adults of sweetpotato whitefly were released in the cage together with kidney bean on which the adults had been parasitized. One day after release of the adults, a potted kidney bean having no adults parasitized thereon was set in the cage for oviposition. Among the eggs laid on the potted kidney bean until the next day, the number of unhatched eggs was counted.

sweetpotato whitefly [2] = assay: Test Example 5: gravure-printed yellow Kent paper (Production Example 4) in net room with cabbages, count of larvae; type: in vivo, Bemisia tabaci; conditions: after 1 month; larvae parasitized on five randomly selected cabbages; yellow Kent paper 10 cm x 2 m, 5 g/m²; 800 adults released
Description: Five parts of the insect growth regulator is dissolved in 65 parts of a vegetable oil, and then 20 parts of a mineral oil and 10 parts of a surface active agent are added thereto and mixed. The resulting solution is applied to a roll of yellow Kent paper of 50 cm in width and 2,000 m in length by gravure printing to obtain a material for controlling pests containing 5 g/m² of the active ingredient. […] A material for controlling pests prepared according to Production Example 4 with pyriproxyfen (insect growth regulator), a cotton seed oil (vegetable oil), tetradecane (mineral oil) and Span 85® (surface active agent produced by ICI Americas Inc.) was formed into a size of 10 cm x 2 m. It was set at a height of 30 cm above the floor surface between the rows of cabbages. Eight hundred adults of sweetpotato whitefly were released in the net room. After 1 month, the number of larvae parasitized on five randomly selected cabbages was counted.

Thrips palmi = assay: Test Example 12: blue polyethylene sheet (Production Example 10) in glass vessel with cucumber seedlings, count of adults; type: in vivo; conditions: 28° ±1°C
Text: The same procedure as in Production Example 9 is repeated except that a colored master batch for blue coloration (SPEM 510 produced by Sumika Color Co.; pigment content: 12 wt.%) replaces the colored master batch for yellow coloration. Thus, a sheet-form material for controlling pests is obtained.
Soil was placed on the bottom of a glass vessel of 70 cm x 35 cm x 35 cm in size. Three cucumber seedings, on which Thrips palmi had been parasitized, were planted at the central part of the glass vessel. After three days, the material for controlling pests prepared according to Production Example 10 was formed into a size of 15 cm x 15 cm and set at a height of 5 cm above the ground. On the other hand, the same test was carried out by setting a blue film containing no insect growth regulator, a control, in the same manner as in setting the above material for controlling pests.
On the predetermined day, the number of Thrips palmi adults parasitized on the cucumbers was counted. The tests were carried out in a room kept at 28° ±1°C.

sweetpotato whitefly [3] = assay: Test Example 9: yellow Kent paper (Production Example 8) in net cage, hatching inhibition; type: in vivo, Bemisia tabaci; conditions: yellow Kent paper 15 cm x 15 cm, 1 g/m², Solvesso 200; eggs laid on kidney bean
Description: Ten parts of the insect growth regulator is dissolved in 90 parts of a mineral oil. 0.225 Gram of the resulting solution is absorbed in a square yellow Kent paper having a side of 15 cm to obtain a material for controlling pests containing 1 g/m² of the active ingredient. A material for controlling pests containing pyriproxyfen (insect growth regulator) and Solvesso 200 (mineral oil) prepared according to Production Example 8 was formed into a size of 15 cm x 15 cm. It was set on one wall surface of a nylon net cage of 30 cm x 30 cm x 30 cm in size. About 100 adults of sweetpotato whitefly were released in the cage together with kidney bean on which the adults had been parasitized. One day after release of the adults, a potted kidney bean having no adults parasitized thereon was set in the cage for oviposition. Among the eggs laid on the potted kidney bean until the next day, the number of untached eggs was counted.

sweetpotato whitefly [4] = assay: Test Example 4: yellow cloth with cotton seed oil solution in net cage, hatching inhibitory effect on eggs; type: in vivo, Bemisia tabaci; conditions: after 48 hours, kidney bean
Description: Materials for controlling pests containing pyriproxyfen in amounts of 5.3 mg/cm², 2.7 mg/cm² and 0.5 mg/cm², respectively, were prepared by dissolving the corresponding amounts of pyriproxyfen in a cotton seed oil and coating every solution thus obtained onto a yellow cloth of 15 cm x 15 cm in size to allow the cloth to absorb the solution. Every cloth was set on one wall surface of a nylon net cage (30 cm x 30 cm x 30 cm). Kidney bean planted in a pot was placed at the center of the cage, and sweetpotato whitefly adults were released in the cage. After 48 hours, the hatching inhibitory effect on eggs from the adults was examined.

greenhouse whiteflies = assay: Test Example 1: yellow cloth material (Production Example 2) set beside tomato, count of adults; type: in vivo, Trialeurodes vaporariorum
Description: 0.4 Part of the insect growth regulator is dissolved in 40 parts of acetone and further 0.8 part of rape seed oil is added thereto. Thirty-one milliliters of the resulting solution is absorbed in a yellow cloth of 21 cm x 92 cm in size. Acetone is then vaporized to obtain a material for controlling pests containing 0.16 mg/cm² of the active ingredient. A material for controlling pests with pyriproxyfen as insect growth regulator was prepared according to Production Example 2. It was set at the same height as that of a container (80 cm x 112 cm x 45 cm) in which tomato having greenhouse whiteflies parasitized thereon had been planted. On the other hand, a yellow cloth containing no insect growth regulator was set as a control at a distance of about 8 m. On the predetermined day, the number of greenhouse whitefly adults parasitized on the tomato was counted.

Compound: CC(COc1ccc(Oc2ccccc2)cc1)Oc1ccccn1 (centres unmarked) [pyriproxyfen, 4-phenoxyphenyl 2-(2-pyridyloxy)propyl ether]
- Hatching inhibitory rate (%) (sweetpotato whitefly [1]): 90.6%
- Number of larvae (sweetpotato whitefly [2]): 192
- number of Thrips palmi adults parasitized on the cucumbers (Thrips palmi; 0 days elapsed after setting, blue polyethylene sheet 15 cm x 15 cm): 3
- number of Thrips palmi adults parasitized on the cucumbers (Thrips palmi; 7 days elapsed after setting, blue polyethylene sheet): 4
- number of Thrips palmi adults parasitized on the cucumbers (Thrips palmi; 14 days elapsed after setting, blue polyethylene sheet): 3
- number of Thrips palmi adults parasitized on the cucumbers (Thrips palmi; 21 days elapsed after setting, blue polyethylene sheet): 2
- Hatching inhibitory rate (%) (sweetpotato whitefly [3]): 98.2%
- Hatching inhibitory rate (%) (sweetpotato whitefly [4]; Pyriproxyfen 0.5 mg/cm² on yellow cloth): 83.7%
- Hatching inhibitory rate (%) (sweetpotato whitefly [4]; Pyriproxyfen 2.7 mg/cm² on yellow cloth): 98.2%
- Hatching inhibitory rate (%) (sweetpotato whitefly [4]; Pyriproxyfen 5.3 mg/cm² on yellow cloth): 94.6%
- number of greenhouse whitefly adults parasitized on the tomato (mean value per cup) (greenhouse whiteflies; 0 days elapsed after setting, 0.16 mg/cm² active ingredient, rape seed oil): 102
- number of greenhouse whitefly adults parasitized on the tomato (mean value per cup) (greenhouse whiteflies; 7 days elapsed after setting, 0.16 mg/cm²): 82
- number of greenhouse whitefly adults parasitized on the tomato (mean value per cup) (greenhouse whiteflies; 14 days elapsed after setting, 0.16 mg/cm²): 82
- number of greenhouse whitefly adults parasitized on the tomato (mean value per cup) (greenhouse whiteflies; 18 days elapsed after setting, 0.16 mg/cm²): 53
- number of greenhouse whitefly adults parasitized on the tomato (mean value per cup) (greenhouse whiteflies; 28 days elapsed after setting, 0.16 mg/cm²): 18
- number of greenhouse whitefly adults parasitized on the tomato (mean value per cup) (greenhouse whiteflies; 35 days elapsed after setting, 0.16 mg/cm²): 12
- number of greenhouse whitefly adults parasitized on the tomato (mean value per cup) (greenhouse whiteflies; 42 days elapsed after setting, 0.16 mg/cm²): 5

Reference: patent EP0548931A1, “Material for controlling pests” (SUMITOMO CHEMICAL COMPANY, LIMITED, priority 1991, dated 1993)
